# Reference: patent publication USRE40862E1, “Gossypolone for the treatment of cancer” (priority 1990, dated 2009)
# “And” between values parts separate entries of the source, which are not always exact repeats. Equal entries are not always repeated. “Also recorded” adds a separate entry of the source.
# Tests used:
# [1] = system: metastatic adrenocortical carcinoma; assay: Phase 1 clinical trial of oral gossypol for adrenocortical cancer
# Experimental: (§1) Gossypol acetic acid, 10 mg compressed tablet, was given orally at a dose of 20 mg/d which was increased by 10 mg/d every three days to a dose of 50 mg/d.
# [2] = mouse; Rao et al. (1985); cited from earlier work
# clinical = conditions: human, in vivo
# Experimental: as §1
# [3] = system: SW-13 human adrenocortical carcinoma; assay: Gossypol in SW-13 tumor bearing nude mice (preexisting tumors); assay type: in vivo; conditions: for Mean tumor size (mean ± SE): length×width; for Total deaths / Prevalence of tumor: preexisting tumors
# Experimental: Nude mice (Charles River, Kingston, N.Y.) weighing 20-35 g were caged in a temperature-controlled (26-28° C.), 12 h/12 h light/dark animal room. A microporous cage bonnet served as an effective protective barrier between the animal and the outside environment. In addition, the room was continuously purged with […]. The cages, feeders, and water bottles were designed to make standard mouse chow and water readily available while minimizing the opportunity for the transfer of communicable pathogens.
# Another experiment was designed wherein 48 adult male nude mice weighing 25-35 g were injected s.c. with 2×10^6 SW-13 cells. One month later, the animals were divided into two groups of 24. There were 7 nude mice without visible tumors in each group. The gossypol treated animals received 30 mg gossypol acetic acid/kg body weight/day whereas control animals were fed an equal volume of carrier. Body weigths and tumor sizes (lengths×width, cm^2) were measured weekly. During the 12th week of treatment, 5 control animals died. Since it appeared unlikely that the remaining control animals would survive for another week, they were then sacrificed. Autopsies were performed on all animals including those that died during the study period. Internal organs were examined for the presence of gross tumor.
# Data are expressed as the mean±SD unless otherwise indicated. Statistical comparisons were made using an unpaired Student's t test.
# In this experiment, nude mice had been given s.c. injections of SW-13 adrenocortical carcinoma 1 month prior to initiation of the treatment with either gossypol or carrier.
# cancers = conditions: cited from earlier work
# SW-13 cells = assay: In vitro gossypol treatment: SW-13 cell proliferation; assay type: cell-based, human; conditions: 5 and 50 uM gossypol, prolonged exposure (1-6 days)
# Experimental: SW-13 cells were seeded (1×10^4 cells) into 25 cm^2 tissue culture flasks in Dulbecco's minimal Eagle's medium supplemented with fetal calf serum (10%), 100 ug/ml streptomycin, 100 units/ml penicillin, and 2 mM glutamine.
# Sw-13 cells were seeded in a 25-cm^2 tissue culture flask (Costar, Cambridge, Mass.) at densities of 1×10^4 cells/5 ml of Dulbecco's minimal Eagle's medium, supplemented with 10% fetal calf serum, 100 ug/ml streptomycin, 100 units/ml penicillin, and 2 mM glutamine. The cells were grown in a humidified, 37° C. incubator with a 5% CO2/95% air atmosphere. A gossypol stock solution in absolute ethanol was added to the culture medium to yield final concentrations of 0, 0.5, 5, and 50 uM gossypol with a 0.1% final ethanol concentration. After 1, 2, 4, or 6 days of incubation, the culture medium containing a few floating cells was removed. Adherent cells were typsinized (0.1% trypsin, w/v) and counted using a hemocytometer. Cell viability was determined by trypan blue exclusion.
# adrenocortical carcinoma = assay: Previous therapy of the patient with adrenocortical carcinoma; assay type: in vivo, human; conditions: person, hepatic metastases, before gossypol
# [4] = patient 26, lung, liver, dose 70, 3 weeks
# [5] = patient 27, abdomen, pelvis, dose 50, 6 weeks
# [6] = patient 34, abdomen, liver, dose 40-50, 12 weeks
# [7] = patient 52, abdomen, dose 40, 6 weeks
# [8] = person, after three weeks, gossypol acetic acid tablets 20 to 50 mg/d oral
structure (smiles),measurement,setting,value
"Cc1cc2c(C(C)C)c(O)c(O)c(C=O)c2c(O)c1-c1c(C)cc2c(C(C)C)c(O)c(O)c(C=O)c2c1O [Gossypol, gossypol]",tumor responses among the five patients,[1]; five patients of Table 3,"two exhibited partial tumor responses, one has stable disease, and two showed tumor progression"
same,dose above which toxicity begins to occur in humans,[1]; humans,1 to 2 mg/kg/day
same,dose at which the anti-tumor effect occurs in humans,"[1]; humans, approximately one tenth of dose effective in animals",~1 mg/kg/day
same,side effects in treatment of human cancers,"[1]; humans, compared to conventional therapies","mild fatigue, muscle tremor, dry mouth, dry skin, and occasional nausea"
same,Response,[1]; [4],Pro-
same,Side Effects,[1]; [4],Xerostomia; also recorded: Nausea; also recorded: Trans-
same,Response,[1]; [5],Pro-
same,Side Effects,[1]; [5],Xerostomia; also recorded: Fatigue
same,Response,[1]; [6],Stabili-
same,Side Effects,[1]; [6],Xerostomia; also recorded: Fatigue; also recorded: Nausea
same,Response,[1]; [7],Partial
same,Side Effects,[1]; [7],Xerostomia; also recorded: Fatigue; also recorded: Nausea
same,side effects experienced during gossypol treatment,"[1]; person, 20 to 50 mg/d oral","fatigue, xerostomia, tremor, and trasnminitis"
same,clinical symptoms,"[1]; person, after three weeks of treatment","improvement in abdominal pain, ascites, and pulmonary function"
same,decrease in the size of the hepatic metastases on CT scans,[1]; [8],> 50%
same,pulmonary metastases on CT scans,[1]; [8],complete resolution
same,higher doses shown to be lethal,[2],0.8 mg/mouse and 1.6 mg/mouse
same,concentration at 6 weeks,"clinical; female, oral, 40 mg/d",4.44 ng/mL
same,concentration at 3 weeks,clinical; male,10.2 ng/mL
same,concentration at 12 weeks,"clinical; male, oral",2.91 ng/mL
same,concentration at 6 weeks,"clinical; male, oral, 50 mg/d",2.29 ng/mL
same,"total tumor burden (cumulative surface area), control relative to gossypol group","[3]; 12th week, FIG. 2",twice
same,effect on body weights,[3]; 12 weeks of gossypol treatment,no significant effect
same,body weight at the end of the study period (mean ± SD),"[3]; after 12 weeks, 30 mg/kg/day oral",30.9 ± 3.6 g
same,number of deaths in the gossypol-treated group,"[3]; during 12 weeks of treatment, group of 24, 10 deaths in control group",two
same,Mean tumor size (mean ± SE),"[3]; week 0, 30 mg/kg/day oral",0.08 ± 0.02 cm^2
same,Total deaths,"[3]; week 0, 30 mg/kg/day oral",0%
same,Prevalence of tumor,"[3]; week 0, 30 mg/kg/day oral, 30 mg/kg/day",72%
same,Prevalence of tumor,"[3]; week 0, 30 mg/kg/day oral, listed as gossypol, 30 mg/kg/day",71%
same,Mean tumor size (mean ± SE),"[3]; week 1, 30 mg/kg/day oral",0.07 ± 0.02 cm^2
same,Prevalence of tumor,"[3]; week 1, 30 mg/kg/day oral",63%
same,Total deaths,"[3]; week 1, 30 mg/kg/day oral",0%
same,Mean tumor size (mean ± SE),"[3]; week 2, 30 mg/kg/day oral",0.12 ± 0.04^a cm^2
same,Prevalence of tumor,"[3]; week 2, 30 mg/kg/day oral",50%
same,Total deaths,"[3]; week 2, 30 mg/kg/day oral",0%
same,Mean tumor size (mean ± SE),"[3]; week 3, 30 mg/kg/day oral",0.15 ± 0.05^a cm^2
same,Prevalence of tumor,"[3]; week 3, 30 mg/kg/day oral",54%
same,Total deaths,"[3]; week 3, 30 mg/kg/day oral",0%
same,Mean tumor size (mean ± SE),"[3]; week 4, 30 mg/kg/day oral",0.20 ± 0.07^a cm^2
same,Prevalence of tumor,"[3]; week 4, 30 mg/kg/day oral",50%
same,Total deaths,"[3]; week 4, 30 mg/kg/day oral",0%
same,Mean tumor size (mean ± SE),"[3]; week 5, 30 mg/kg/day oral",0.28 ± 0.08^a cm^2
same,Prevalence of tumor,"[3]; week 5, 30 mg/kg/day oral",58%
same,Total deaths,"[3]; week 5, 30 mg/kg/day oral",0%
same,Mean tumor size (mean ± SE),"[3]; week 6, 30 mg/kg/day oral",0.32 ± 0.10^a cm^2
same,Prevalence of tumor,"[3]; week 6, 30 mg/kg/day oral",58%
same,Total deaths,"[3]; week 6, 30 mg/kg/day oral",0%
same,Mean tumor size (mean ± SE),"[3]; week 7, 30 mg/kg/day oral",0.38 ± 0.12^a cm^2
same,Prevalence of tumor,"[3]; week 7, 30 mg/kg/day oral",58%
same,Total deaths,"[3]; week 7, 30 mg/kg/day oral",0%
same,Mean tumor size (mean ± SE),"[3]; week 8, 30 mg/kg/day oral",0.45 ± 0.14^a cm^2
same,Prevalence of tumor,"[3]; week 8, 30 mg/kg/day oral",58%
same,Total deaths,"[3]; week 8, 30 mg/kg/day oral",0%
same,Mean tumor size (mean ± SE),"[3]; week 9, 30 mg/kg/day oral",0.50 ± 0.15^a cm^2
same,Prevalence of tumor,"[3]; week 9, 30 mg/kg/day oral",54%
same,Total deaths,"[3]; week 9, 30 mg/kg/day oral",0%
same,Mean tumor size (mean ± SE),"[3]; week 10, 30 mg/kg/day oral",0.59 ± 0.18^a cm^2
same,Prevalence of tumor,"[3]; week 10, 30 mg/kg/day oral",54%
same,Total deaths,"[3]; week 10, 30 mg/kg/day oral",0%
same,Mean tumor size (mean ± SE),"[3]; week 11, 30 mg/kg/day oral",0.68 ± 0.21^a cm^2
same,Prevalence of tumor,"[3]; week 11, 30 mg/kg/day oral",54%
same,Total deaths,"[3]; week 11, 30 mg/kg/day oral",0%
same,Mean tumor size (mean ± SE),"[3]; week 12, 30 mg/kg/day oral",0.81 ± 0.25 (n = 22) cm^2
same,Prevalence of tumor,"[3]; week 12, 30 mg/kg/day oral",54%
same,Total deaths,"[3]; week 12, 30 mg/kg/day oral",8.3%
same,anti-tumor effective dose in animals,cancers,~10 mg/kg/day
same,effect on proliferation of SW-13 cells,SW-13 cells,inhibited cell proliferation
Cc1ccc(C(=O)Nc2ccc(S(=O)(=O)O)c3cc(S(=O)(=O)O)cc(S(=O)(=O)O)c23)cc1NC(=O)c1cccc(NC(=O)Nc2cccc(C(=O)Nc3cc(C(=O)Nc4ccc(S(=O)(=O)O)c5cc(S(=O)(=O)O)cc(S(=O)(=O)O)c45)ccc3C)c2)c1 [Suramin],tumor course under treatment,adrenocortical carcinoma,progressed
